Laboratory results as given in ChEMBL document CHEMBL3046894, “Synthesis and Herbicidal Activity of Pyrimidinyl Salicylic and Thiosalicylic Acids” (J Pestic Sci, 1996).
The source made the active and inactive calls. The rule behind the calls is not given here.

Experiments:
Format in all cases: functional, organism-based
Persicaria nodosa [1] = experiment: Post-emergence herbicidal activity against Persicaria nodosa assessed as growth inhibition at 25 g a.i/10 a applied 11 days after germination as foliar spray
Echinochloa crus-galli [2] = experiment: Pre-emergence herbicidal activity against Echinochloa crus-galli (barnyard grass) assessed as growth inhibition at 25 g a.i/10 a
Echinochloa crus-galli [3] = experiment: Post-emergence herbicidal activity against Echinochloa crus-galli (barnyard grass) assessed as growth inhibition at 25 g a.i/10 a applied 11 days after germination as foliar spray
Chenopodium album [4] = experiment: Post-emergence herbicidal activity against Chenopodium album assessed as growth inhibition at 25 g a.i/10 a applied 11 days after germination as foliar spray
Amaranthus retroflexus [5] = experiment: Post-emergence herbicidal activity against Amaranthus retroflexus assessed as growth inhibition at 25 g a.i/10 a applied 11 days after germination as foliar spray
Digitaria sanguinalis [6] = experiment: Pre-emergence herbicidal activity against Digitaria sanguinalis (hairy crabgrass) assessed as growth inhibition at 25 g a.i/10 a
Persicaria nodosa [7] = experiment: Pre-emergence herbicidal activity against Persicaria nodosa assessed as growth inhibition at 25 g a.i/10 a
Amaranthus retroflexus [8] = experiment: Pre-emergence herbicidal activity against Amaranthus retroflexus assessed as growth inhibition at 25 g a.i/10 a
Chenopodium album [9] = experiment: Pre-emergence herbicidal activity against Chenopodium album assessed as growth inhibition at 25 g a.i/10 a
Cyperus iria [10] = experiment: Post-emergence herbicidal activity against Cyperus iria assessed as growth inhibition at 25 g a.i/10 a applied 11 days after germination as foliar spray
Digitaria sanguinalis [11] = experiment: Post-emergence herbicidal activity against Digitaria sanguinalis (hairy crabgrass) assessed as growth inhibition at 25 g a.i/10 a applied 11 days after germination as foliar spray
Cyperus iria [12] = experiment: Pre-emergence herbicidal activity against Cyperus iria assessed as growth inhibition at 25 g a.i/10 a

Compound	growth inhibition (GI) (Persicaria nodosa [1])	growth inhibition (GI) (Echinochloa crus-galli [2])	growth inhibition (GI) (Echinochloa crus-galli [3])	growth inhibition (GI) (Chenopodium album [4])	growth inhibition (GI) (Amaranthus retroflexus [5])	growth inhibition (GI) (Digitaria sanguinalis [6])	growth inhibition (GI) (Persicaria nodosa [7])	growth inhibition (GI) (Amaranthus retroflexus [8])	growth inhibition (GI) (Chenopodium album [9])	growth inhibition (GI) (Cyperus iria [10])	growth inhibition (GI) (Digitaria sanguinalis [11])	growth inhibition (GI) (Cyperus iria [12])
COc1cc(OC)nc(Oc2ccc(OC(C)C)cc2C(=O)O)n1	Active	inactive	Active	inactive	inactive	inactive	inactive	inactive	inactive	Active	inactive	inactive
COc1cc(OC)nc([S+]([O-])c2cccc(Cl)c2C(=O)O)n1 (stereo not given)	Active	inactive	Active	Active	Active	Active	inactive	Active	Active	Active	inactive	Active
COc1cc(OC)nc(Oc2c(C)cccc2C(=O)O)n1	Active	Active	inactive	inactive	Active	inactive	inactive	Active	Active	Active	inactive	Active
COc1cc(OC)nc(Oc2ccc(C(F)(F)F)cc2C(=O)O)n1	inactive	inactive	inactive	inactive	Active	inactive	inactive	inactive	inactive	inactive	inactive	inactive
COc1cc(OC)nc(Oc2ccc(-n3cccc3)cc2C(=O)O)n1	Active	inactive	Active	inactive	Active	inactive	inactive	inactive	inactive	Active	Active	inactive
COc1cc(OC)nc(Oc2c(Cl)cccc2C(=O)O)n1	Active		inactive	inactive	Active					Active	inactive	
CCSc1cccc(Oc2nc(OC)cc(OC)n2)c1C(=O)O	Active	inactive	Active	Active	Active	inactive	inactive	Active	inactive	Active	inactive	inactive
COc1cc(OC)nc(Oc2cccc(OC(C)C)c2C(=O)O)n1	Active	Active	Active	Active	Active	Active	Active	Active	Active	Active	Active	Active
CNc1ccc(Oc2nc(OC)cc(OC)n2)c(C(=O)O)c1	Active	inactive	Active	Active	Active	inactive	Active	Active	Active	Active	Active	Active
COc1cc(OC)nc(Oc2ccc(Cl)cc2C(=O)O)n1	inactive	inactive	inactive	Active	Active	inactive	inactive	Active	Active	Active	inactive	inactive
CCCc1cccc(Oc2nc(OC)cc(OC)n2)c1C(=O)O	Active	Active	Active	Active	Active	Active	Active	Active	Active	Active	Active	Active
COc1cc(OC)nc(Oc2ccc(C)cc2C(=O)O)n1	Active	inactive	Active	inactive	Active	inactive	inactive	Active	Active	inactive	inactive	Active
COc1cc(OC)nc(Oc2c(F)cccc2C(=O)O)n1	Active	Active	Active	Active	Active	Active	Active	Active	Active	Active	inactive	Active
COc1cc(OC)nc(Oc2cc(N)ccc2C(=O)O)n1	Active	inactive	inactive	Active	Active	inactive	inactive	inactive	inactive	Active	inactive	inactive
COc1cc(OC)nc(Oc2cccc(-n3cccc3)c2C(=O)O)n1	Active	Active	Active	Active	Active	Active	Active	Active	Active	Active	Active	Active
COc1cc(OC)nc(Nc2cccc(Cl)c2C(=O)O)n1	inactive	inactive	inactive	inactive	Active	inactive	inactive	inactive	inactive	inactive	inactive	inactive
CCOCCOc1cccc(Oc2nc(OC)cc(OC)n2)c1C(=O)O	Active	Active	Active	Active	Active	Active	Active	Active	Active	Active	Active	Active
COc1cc(OC)nc(Oc2ccc(Br)cc2C(=O)O)n1	inactive	inactive	inactive	inactive	inactive	inactive	inactive	inactive	inactive	inactive	inactive	inactive
